Assay results from patent US20050020612A1, “4-Aryliquinazolines and the use thereof as nhe-3 inhibitors” (priority 2001, published 2005).
Counter-ions that a name gives are not always drawn.

melting point	Compound
289 to 290 °C	Cc1ccc(-c2nc(NN=C(N)N)nc3ccc(Cl)cc23)cc1 (as salt: HCl) [Example 10]
241 °C	NC(N)=Nc1nc(-c2cccc(N3CCNCC3)c2)c2cc(Cl)ccc2n1 (as salt: HCl) [Example 225]
